The source of these data is patent US4073913A, “N^2 -arylsulfonyl-L-argininamides and the pharmaceutically acceptable salts thereof” (Mitsubishi Chemical Industries Limited, priority 1974, dated 1978).

SMILES strings stand for the structures. Non-standard residues stand in square brackets, D forms with d. Residues, ends and D or L forms follow the SMILES beside them. ξ: configuration not given here. *: point of attachment. Dansyl = CN(C)c1cccc2c(S(=O)(=O)*)cccc12; ξPip = O=C(O)C1CCCCN1

This experiment has as its target T1, thrombin (Bos taurus, UniProt P00735).
T1 construct: clotting of bovine fibrinogen
The experiment can be described thus: fibrinogen coagulation time (concentration required to prolong the coagulation time by a factor of two). The experiment is classed as biochemical. The following applies: bovine fibrinogen, thrombin 5 units/ml, borate saline buffer pH 7.4, 25° C; control 50-55 seconds prolonged to 100-110 seconds. How it is done: The measurement of the fibrinogen coagulation time was conducted as follows:
Immediately after mixing, the reaction mixture was transferred from the ice bath to a bath maintained at 25° C. Coagulation times were taken as the period between the time of transference to the 25° C bath and the time of the first appearance of fibrin threads. […] The term "concentration required to prolong the coagulation time by a factor of two" is the concentration of an active ingredient required to prolong the normal coagulation time 50-55 seconds to 100-110 seconds.
Regarding `CCSCCN(CC(=O)O)C(=O)[C@H](CCCNC(=N)N)NS(=O)(=O)c1ccc2cc(OC)c(OC)cc2c1` [compound 69], the IC (2-fold clotting time) was determined as 5 µM.
Take `COc1cc2ccc(S(=O)(=O)N[C@@H](CCCNC(=N)N)C(=O)N3CCCCC3C(=O)O)cc2cc1OC` (stereo partly drawn) [compound 71]: the IC (2-fold clotting time) is 5 µM.
Regarding `COc1cc2ccc(S(=O)(=O)N[C@@H](CCCNC(=N)N)C(=O)N(CC(=O)O)C3CCCCC3)cc2cc1OC` [compound 111], the IC (2-fold clotting time) was 5 µM.
As for `CCCCCN(C(=O)[C@H](CCCNC(=N)N)NS(=O)(=O)c1ccc2cc(OC)c(OC)cc2c1)C(C)C(=O)O` (stereo partly drawn) [compound 118], the figure is 2 µM; as for `COc1cc2ccc(S(=O)(=O)N[C@@H](CCCNC(=N)N)C(=O)N(Cc3ccccc3)C(C)C(=O)O)cc2cc1OC` (stereo partly drawn) [compound 120], 2.5 µM.
As for `COc1cc2ccc(S(=O)(=O)N[C@@H](CCCNC(=N)N)C(=O)N(CCc3ccccc3)C(C)C(=O)O)cc2cc1OC` (stereo partly drawn) [compound 122], the figure is 1.5 µM.
As for `COc1ccc2cc(S(=O)(=O)N[C@@H](CCCNC(=N)N)C(=O)N(CC3CCCCC3)C(C)C(=O)O)cc(OC)c2c1` (stereo partly drawn) [compound 126], the figure is 4.5 µM; as for `COCCN(C(=O)[C@H](CCCNC(=N)N)NS(=O)(=O)c1ccc2cc(OC)c(OC)cc2c1)C(C)C(=O)O` (stereo partly drawn) [compound 129], 5 µM.
For `CCCCN(CC(=O)O)C(=O)[C@H](CCCNC(=N)N)NS(=O)(=O)c1cccc2c1CCCC2` [compound 130], the IC (2-fold clotting time) was 20 µM.
Next, `COCCN(CC(=O)O)C(=O)[C@H](CCCNC(=N)N)NS(=O)(=O)c1cccc2c1CCCC2` [compound 132]: 10 µM.
In the case of `N=C(N)NCCC[C@H](NS(=O)(=O)c1ccc2c(c1)CCCC2)C(=O)N(CC(=O)O)Cc1ccccc1` [compound 133], the IC (2-fold clotting time) is 30 µM.
With `CCCCN(CC(=O)O)C(=O)[C@H](CCCNC(=N)N)NS(=O)(=O)c1ccc2ccc(C)cc2c1` [compound 143], the IC (2-fold clotting time) amounted to 0.3 µM.
Next, `COCCN(CC(=O)O)C(=O)[C@H](CCCNC(=N)N)NS(=O)(=O)c1ccc2ccc(C)cc2c1` [compound 144]: 0.2 µM.
Turning to `Cc1ccc2ccc(S(=O)(=O)N[C@@H](CCCNC(=N)N)C(=O)N(CC(=O)O)CC3CCCCC3)cc2c1` [compound 146], the IC (2-fold clotting time) came to 14 µM.
Next, `COCCN(CC(=O)O)C(=O)[C@H](CCCNC(=N)N)NS(=O)(=O)c1cccc2ccc(C)cc12` [compound 151]: 20 µM; `COCCN(CC(=O)O)C(=O)[C@H](CCCNC(=N)N)NS(=O)(=O)c1cccc2cc(C)c(C)cc12` [compound 152]: 10 µM; `CCCCN(CC(=O)O)C(=O)[C@H](CCCNC(=N)N)NS(=O)(=O)c1cccc2c(N(C)C)cccc12` [compound 153]: 4 µM.
Next, `Cc1ccc2ccc(S(=O)(=O)N[C@@H](CCCNC(=N)N)C(=O)N(CC(=O)O)CC3CCCO3)cc2c1` (stereo partly drawn) [compound 160]: 0.25 µM; `Cc1ccc2ccc(S(=O)(=O)N[C@@H](CCCNC(=N)N)C(=O)N(CC(=O)O)CC3CCCO3)cc2c1` (stereo partly drawn) [compound 161]: 0.2 µM.
As for `COc1ccc2ccc(S(=O)(=O)N[C@@H](CCCNC(=N)N)C(=O)N(CC(=O)O)Cc3ccco3)cc2c1` [compound 162], the figure is 0.2 µM; as for `COc1ccc2ccc(S(=O)(=O)N[C@@H](CCCNC(=N)N)C(=O)N(CC(=O)O)CC3CCCO3)cc2c1` (stereo partly drawn) [compound 164], 0.15 µM; as for `Cc1ccc2ccc(S(=O)(=O)N[C@@H](CCCNC(=N)N)C(=O)N3CCC(C)CC3C(=O)O)cc2c1` (stereo partly drawn) [compound 173], 0.2 µM.
On to `Cc1ccc2ccc(S(=O)(=O)N[C@@H](CCCNC(=N)N)C(=O)N3CCC(C(C)C)CC3C(=O)O)cc2c1` (stereo partly drawn) [compound 175], for which the IC (2-fold clotting time) came to 0.1 µM.
Next, `CC1CCN(C(=O)[C@H](CCCNC(=N)N)NS(=O)(=O)c2cccc3ccccc23)C(C(=O)O)C1` (stereo partly drawn) [compound 179]: 1 µM; `CC(C)C1CCN(C(=O)[C@H](CCCNC(=N)N)NS(=O)(=O)c2ccc3ccccc3c2)C(C(=O)O)C1` (stereo partly drawn) [compound 181]: 0.5 µM; `CN(C)c1cccc2c(S(=O)(=O)N[C@@H](CCCNC(=N)N)C(=O)N3CCCCC3C(=O)O)cccc12` (stereo partly drawn) [compound 183] (Dansyl-Arg-[ξPip]-OH): 0.35 µM.
Regarding `COc1cc2ccc(S(=O)(=O)N[C@@H](CCCNC(=N)N)C(=O)N3CCOCC3C(=O)O)cc2cc1OC` (stereo partly drawn) [compound 191], the IC (2-fold clotting time) was determined as 5 µM.
Turning to `COc1cc2ccc(S(=O)(=O)N[C@@H](CCCNC(=N)N)C(=O)N3Cc4ccccc4CC3C(=O)O)cc2cc1OC` (stereo partly drawn) [compound 194], the IC (2-fold clotting time) came out at 2 µM.
Regarding `COc1cc2ccc(S(=O)(=O)N[C@@H](CCCNC(=N)N)C(=O)N3Cc4ccccc4C3C(=O)O)cc2cc1OC` (stereo partly drawn) [compound 195], the IC (2-fold clotting time) turned out to be 1.5 µM.
As for `CCOC(=O)CCN(CC(=O)O)C(=O)[C@H](CCCNC(=N)N)NS(=O)(=O)c1ccc2cc(OC)c(OC)cc2c1` [compound 196], the figure is 6.5 µM; as for `CCCCCCCCOC(=O)CN(CCOC)C(=O)[C@H](CCCNC(=N)N)NS(=O)(=O)c1ccc2cc(OC)c(OC)cc2c1` [compound 200], 2 µM; as for `COCCN(CC(=O)Oc1cccc(C)c1)C(=O)[C@H](CCCNC(=N)N)NS(=O)(=O)c1ccc2cc(OC)c(OC)cc2c1` [compound 202], 20 µM.
As for `COCCN(CC(=O)Oc1ccc2c(c1)CCC2)C(=O)[C@H](CCCNC(=N)N)NS(=O)(=O)c1ccc2cc(OC)c(OC)cc2c1` [compound 203], the figure is 30 µM; as for `COc1ccc2ccc(S(=O)(=O)N[C@@H](CCCNC(=N)N)C(=O)N3CC[S+]([O-])CC3C(=O)O)cc2c1` (stereo partly drawn) [compound 204], 4.5 µM; as for `COc1ccc2ccc(S(=O)(=O)N[C@@H](CCCNC(=N)N)C(=O)N3CCCCCC3C(=O)O)cc2c1` (stereo partly drawn) [compound 205], 2.5 µM.
In the case of `CCCC(C(=O)O)N(CC(=O)O)C(=O)[C@H](CCCNC(=N)N)NS(=O)(=O)c1ccc2cc(OC)c(OC)cc2c1` (stereo partly drawn) [compound 207], the IC (2-fold clotting time) was found to be 55 µM.
Turning to `COc1cc2ccc(S(=O)(=O)N[C@@H](CCCNC(=N)N)C(=O)N(C)C(Cc3ccccc3)C(=O)O)cc2cc1OC` (stereo partly drawn) [compound 209], the IC (2-fold clotting time) stood at 2 µM.
Next, `COc1ccc2ccc(S(=O)(=O)N[C@@H](CCCNC(=N)N)C(=O)N(C)C(Cc3ccccc3)C(=O)O)cc2c1` (stereo partly drawn) [compound 211]: 2.5 µM; `COc1cc2ccc(S(=O)(=O)N[C@@H](CCCNC(=N)N)C(=O)N(CC(=O)O)CC(C)OC)cc2cc1OC` (stereo partly drawn) [compound 212]: 6.5 µM.
Next, `CCCC(NC(=O)[C@H](CCCNC(=N)N)NS(=O)(=O)c1ccc2cc(OC)c(OC)cc2c1)C(=O)O` (stereo partly drawn) [compound 214]: 15 µM; `COc1cc2ccc(S(=O)(=O)N[C@@H](CCCNC(=N)N)C(=O)N3CCCC[C@@H]3C(=O)O)cc2cc1OC` [compound 220]: 2 µM; `COc1cc2ccc(S(=O)(=O)N[C@@H](CCCNC(=N)N)C(=O)N3CCCC[C@H]3C(=O)O)cc2cc1OC` [compound 221]: 15 µM.
